Experimental data reported in PubChem BioAssay AID2060510 (Molecular Pharmacology Branch, DTP, NCI, 2025).

System: 439559-082-T-J2-PDC spheroids viability
Test: Anticancer human tumor 439559-082-T-J2-PDC patient-derived colon adenocarcinoma cell line growth inhibition [GQUAD]
Details: for IC50: curve of first compound; for viability, T/C: stronger effect = lower value
How it was run: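 Multi-cell-type spheroids of tumor cells with HUVEC and mesenchymal stem cells, treated with drug combinations. Concentrations descend in half-log steps from near clinical Cmax, or from 10 microM where Cmax is unknown; viability read-out.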

[1] = second compound 0.0316 µM, first compound 0.0316 µM
[2] = second compound 0.0316 µM, first compound 0.1 µM
[3] = second compound 0.0316 µM, first compound 0.316 µM
[4] = second compound 0.0316 µM, first compound 1 µM
[5] = second compound 0.0316 µM, first compound 3.16 µM
[6] = second compound 0.0316 µM, first compound 10 µM
[7] = second compound 0.1 µM, first compound 0.0316 µM
[8] = second compound 0.1 µM, first compound 0.1 µM
[9] = second compound 0.1 µM, first compound 0.316 µM
[10] = second compound 0.1 µM, first compound 1 µM
[11] = second compound 0.1 µM, first compound 3.16 µM
[12] = second compound 0.1 µM, first compound 10 µM
[13] = second compound 0.316 µM, first compound 0.0316 µM
[14] = second compound 0.316 µM, first compound 0.1 µM
[15] = second compound 0.316 µM, first compound 0.316 µM
[16] = second compound 0.316 µM, first compound 1 µM
[17] = second compound 0.316 µM, first compound 3.16 µM
[18] = second compound 0.316 µM, first compound 10 µM
[19] = second compound 1 µM, first compound 0.0316 µM
[20] = second compound 1 µM, first compound 0.1 µM
[21] = second compound 1 µM, first compound 0.316 µM
[22] = second compound 1 µM, first compound 1 µM
[23] = second compound 1 µM, first compound 3.16 µM
[24] = second compound 1 µM, first compound 10 µM
[25] = second compound 3.16 µM, first compound 0.0316 µM
[26] = second compound 3.16 µM, first compound 0.1 µM
[27] = second compound 3.16 µM, first compound 0.316 µM
[28] = second compound 3.16 µM, first compound 1 µM
[29] = second compound 3.16 µM, first compound 3.16 µM
[30] = second compound 3.16 µM, first compound 10 µM
[31] = second compound 10 µM, first compound 0.0316 µM
[32] = second compound 10 µM, first compound 0.1 µM
[33] = second compound 10 µM, first compound 0.316 µM
[34] = second compound 10 µM, first compound 1 µM
[35] = second compound 10 µM, first compound 3.16 µM
[36] = second compound 10 µM, first compound 10 µM
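Note: spheroids exposed to the agents for 7 days before readout.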
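Throughout, for viability, T/C: percent of luminescence signal in DMSO vehicle wells taken as 100% viability.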

## CC1COCCN1c1cc(-c2ccnn2C)c2ccnc(-c3ccn[nH]3)c2n1 (centres undefined) + Cc1[nH]c2ccc(F)cc2c1-c1nc2c3cccnc3c3ncccc3c2[nH]1
Second compound 0.0316 µM
  IC50: 0.427 µM
Second compound 0.1 µM
  IC50: 0.269 µM
Second compound 0.316 µM
  IC50: 0.295 µM
Second compound 1 µM
  IC50: 0.276 µM
Second compound 3.16 µM
  IC50: 0.227 µM
Second compound 10 µM
  IC50: 0.209 µM
[1]
  viability, T/C: 106%
[2]
  viability, T/C: 80.6%
[3]
  viability, T/C: 53.5%
[4]
  viability, T/C: 38.8%
[5]
  viability, T/C: 35.8%
[6]
  viability, T/C: 30.7%
[7]
  viability, T/C: 103%
[8]
  viability, T/C: 77.2%
[9]
  viability, T/C: 45.7%
[10]
  viability, T/C: 36.9%
[11]
  viability, T/C: 40.8%
[12]
  viability, T/C: 34.5%
[13]
  viability, T/C: 101%
[14]
  viability, T/C: 87.4%
[15]
  viability, T/C: 47.8%
[16]
  viability, T/C: 34%
[17]
  viability, T/C: 41.6%
[18]
  viability, T/C: 30.2%
[19]
  viability, T/C: 91.6%
[20]
  viability, T/C: 82%
[21]
  viability, T/C: 46%
[22]
  viability, T/C: 31.9%
[23]
  viability, T/C: 39.6%
[24]
  viability, T/C: 29.8%
[25]
  viability, T/C: 88.2%
[26]
  viability, T/C: 73.5%
[27]
  viability, T/C: 40.6%
[28]
  viability, T/C: 30.3%
[29]
  viability, T/C: 34.1%
[30]
  viability, T/C: 27.4%
[31]
  viability, T/C: 76.1%
[32]
  viability, T/C: 73.5%
[33]
  viability, T/C: 36.8%
[34]
  viability, T/C: 31.6%
[35]
  viability, T/C: 32.8%
[36]
  viability, T/C: 29.6%

## CC1COCCN1c1cc(C2(O)CC3CCC(C2)O3)c2cnn(-c3ccn[nH]3)c2n1 (centres undefined) + Cc1[nH]c2ccc(F)cc2c1-c1nc2c3cccnc3c3ncccc3c2[nH]1
Second compound 0.0316 µM
  IC50: 1.69 µM
Second compound 0.1 µM
  IC50: 2.59 µM
Second compound 0.316 µM
  IC50: 1.45 µM
Second compound 1 µM
  IC50: 1.49 µM
Second compound 3.16 µM
  IC50: 0.863 µM
Second compound 10 µM
  IC50: 0.867 µM
[1]
  viability, T/C: 84.5%
[2]
  viability, T/C: 84.2%
[3]
  viability, T/C: 78.2%
[4]
  viability, T/C: 58.6%
[5]
  viability, T/C: 38.9%
[6]
  viability, T/C: 39.5%
[7]
  viability, T/C: 89.5%
[8]
  viability, T/C: 76.3%
[9]
  viability, T/C: 71.1%
[10]
  viability, T/C: 61.9%
[11]
  viability, T/C: 46.7%
[12]
  viability, T/C: 35.2%
[13]
  viability, T/C: 97.2%
[14]
  viability, T/C: 80.2%
[15]
  viability, T/C: 70.8%
[16]
  viability, T/C: 49.9%
[17]
  viability, T/C: 44.6%
[18]
  viability, T/C: 37.3%
[19]
  viability, T/C: 83.8%
[20]
  viability, T/C: 77.3%
[21]
  viability, T/C: 70.2%
[22]
  viability, T/C: 55%
[23]
  viability, T/C: 40.3%
[24]
  viability, T/C: 33.4%
[25]
  viability, T/C: 85.7%
[26]
  viability, T/C: 67.8%
[27]
  viability, T/C: 63.5%
[28]
  viability, T/C: 51%
[29]
  viability, T/C: 32.8%
[30]
  viability, T/C: 27%
[31]
  viability, T/C: 75.4%
[32]
  viability, T/C: 74.5%
[33]
  viability, T/C: 57.1%
[34]
  viability, T/C: 52.1%
[35]
  viability, T/C: 33.4%
[36]
  viability, T/C: 27.1%
